The values below come from ChEMBL document CHEMBL1152152, “Quantitative structure-activity relationship of phenoxyphenyl-methanamine compounds with 5HT2A, SERT, and hERG activities” (Bioorg Med Chem Lett, 2008).

For assay [1], the target named is 5-hydroxytryptamine receptor 2A (Homo sapiens, UniProt P28223). The assay can be described thus: Displacement of [3H]ketanserin from 5HT2A receptor. (In a radioligand displacement assay an active substance lowers the binding of a labelled ligand.)
Assay [2] deals with Sodium-dependent serotonin transporter (Homo sapiens, UniProt P31645). Nature of the assay: Inhibition of serotonin reuptake at SERT.
Chain of Sodium-dependent serotonin transporter (P31645 whole entry): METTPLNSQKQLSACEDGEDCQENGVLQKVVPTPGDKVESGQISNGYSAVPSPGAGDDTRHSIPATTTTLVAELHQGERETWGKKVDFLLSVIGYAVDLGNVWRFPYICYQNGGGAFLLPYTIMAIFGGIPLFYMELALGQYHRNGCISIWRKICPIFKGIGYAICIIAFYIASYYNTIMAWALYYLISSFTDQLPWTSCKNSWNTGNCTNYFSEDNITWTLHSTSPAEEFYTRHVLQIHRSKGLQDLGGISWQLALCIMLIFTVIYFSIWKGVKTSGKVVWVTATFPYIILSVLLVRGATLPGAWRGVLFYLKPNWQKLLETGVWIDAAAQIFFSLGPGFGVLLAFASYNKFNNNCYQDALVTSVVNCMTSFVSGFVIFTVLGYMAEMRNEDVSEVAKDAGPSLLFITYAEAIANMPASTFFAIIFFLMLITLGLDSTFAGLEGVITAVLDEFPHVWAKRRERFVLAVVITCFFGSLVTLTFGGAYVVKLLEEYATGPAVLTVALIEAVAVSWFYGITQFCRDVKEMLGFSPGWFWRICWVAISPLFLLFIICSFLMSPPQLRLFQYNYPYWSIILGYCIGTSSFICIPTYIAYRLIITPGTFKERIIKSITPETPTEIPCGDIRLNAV
The target in assay [3] is Voltage-gated inwardly rectifying potassium channel KCNH2 (Homo sapiens, UniProt Q12809). Nature of the assay: Displacement of [3H]dofetilide from human ERG channel.
Chain of Voltage-gated inwardly rectifying potassium channel KCNH2 (Q12809 whole entry): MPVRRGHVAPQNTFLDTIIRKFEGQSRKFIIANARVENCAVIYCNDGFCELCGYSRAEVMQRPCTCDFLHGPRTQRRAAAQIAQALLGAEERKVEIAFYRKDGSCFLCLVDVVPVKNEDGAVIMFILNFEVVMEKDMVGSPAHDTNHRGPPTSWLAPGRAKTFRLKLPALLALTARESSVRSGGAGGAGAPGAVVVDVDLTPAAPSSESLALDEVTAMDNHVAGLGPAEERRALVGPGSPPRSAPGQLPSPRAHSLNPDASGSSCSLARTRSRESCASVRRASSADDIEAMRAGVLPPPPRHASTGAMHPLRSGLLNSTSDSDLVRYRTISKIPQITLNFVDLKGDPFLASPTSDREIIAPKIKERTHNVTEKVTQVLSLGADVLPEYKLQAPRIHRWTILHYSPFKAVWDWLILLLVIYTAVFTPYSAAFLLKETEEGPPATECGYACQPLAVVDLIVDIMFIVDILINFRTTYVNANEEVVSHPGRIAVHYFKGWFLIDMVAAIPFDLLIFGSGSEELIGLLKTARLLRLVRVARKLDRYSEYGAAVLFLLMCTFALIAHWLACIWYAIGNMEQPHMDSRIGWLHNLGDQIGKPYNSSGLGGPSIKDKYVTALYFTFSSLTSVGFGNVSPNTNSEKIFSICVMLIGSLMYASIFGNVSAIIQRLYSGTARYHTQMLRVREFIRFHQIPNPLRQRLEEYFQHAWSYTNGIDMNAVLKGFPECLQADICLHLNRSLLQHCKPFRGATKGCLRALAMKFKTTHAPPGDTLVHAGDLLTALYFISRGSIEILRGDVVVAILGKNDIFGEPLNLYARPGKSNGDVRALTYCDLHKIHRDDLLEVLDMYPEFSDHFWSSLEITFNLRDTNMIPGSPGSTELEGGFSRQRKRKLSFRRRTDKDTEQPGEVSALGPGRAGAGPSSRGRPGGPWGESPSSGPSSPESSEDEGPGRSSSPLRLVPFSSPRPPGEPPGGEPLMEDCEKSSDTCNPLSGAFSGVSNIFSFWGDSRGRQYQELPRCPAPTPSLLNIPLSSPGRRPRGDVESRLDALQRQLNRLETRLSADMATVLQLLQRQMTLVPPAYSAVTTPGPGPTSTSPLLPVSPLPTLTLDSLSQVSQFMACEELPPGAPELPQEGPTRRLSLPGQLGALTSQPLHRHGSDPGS

Each structure is given as a SMILES string.

Chain of 5-hydroxytryptamine receptor 2A (P28223 whole entry): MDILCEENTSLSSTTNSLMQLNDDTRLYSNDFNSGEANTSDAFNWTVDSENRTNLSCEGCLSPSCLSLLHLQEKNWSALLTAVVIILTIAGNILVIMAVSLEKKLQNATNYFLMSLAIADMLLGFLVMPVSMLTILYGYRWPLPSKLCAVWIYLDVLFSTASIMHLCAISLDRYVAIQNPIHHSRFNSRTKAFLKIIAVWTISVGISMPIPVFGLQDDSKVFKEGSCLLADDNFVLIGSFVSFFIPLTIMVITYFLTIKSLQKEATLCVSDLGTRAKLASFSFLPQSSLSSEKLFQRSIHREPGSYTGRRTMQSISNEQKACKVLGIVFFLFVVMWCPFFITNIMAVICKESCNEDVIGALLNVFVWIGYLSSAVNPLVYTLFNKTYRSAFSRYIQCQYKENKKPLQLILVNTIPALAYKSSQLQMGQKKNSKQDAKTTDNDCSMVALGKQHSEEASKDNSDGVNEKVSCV

With `Cc1ccc(Oc2ccccc2CN(C)C)cc1`, the IC50 in assay [1] was found to be 74.2 nM; in assay [2], 3.46 nM.

Regarding `CNCc1ccccc1Oc1ccc(Cl)cc1`, the IC50 in assay [1] was 1050 nM; in assay [2], 13.9 nM.

With `CNC(C)c1ccc(OC)cc1Oc1ccc(Cl)c(Cl)c1` (configuration not stated), the values for the IC50 in assay [1] and in assay [2] were 88 nM and 41.2 nM, respectively.

For the molecule `CNCc1ccc(Cl)cc1Oc1ccc(F)c(C)c1`, the IC50 in assay [1] came to 32.9 nM; in assay [2], 31.2 nM.

With `CNC(C)c1ccccc1Oc1ccc(C)cc1` (configuration not stated), the figures for the IC50 in assay [1] and in assay [2] were 55.1 nM and 94.1 nM, respectively.

With `Cc1ccc(Oc2ccc(Cl)c(Cl)c2)c(CN(C)C)c1`, the values for the IC50 in assay [1], in assay [2] and in assay [3] were 376 nM, 2.36 nM and 3390 nM, respectively.

For the molecule `CSc1ccc(Oc2ccccc2CN(C)C)cc1`, the results for the IC50 in assay [1], in assay [2] and in assay [3] were 458 nM, 1 nM and 3020 nM, respectively.

For the molecule `CCc1cc(Oc2ccc(F)cc2CNC)ccc1Cl`, the IC50 in assay [1] came out at 274 nM; in assay [2], 5.53 nM.

As to `COc1ccc(CN(C)C)c(Oc2ccc(Cl)c(Cl)c2)c1`, the values for the IC50 in assay [1] and in assay [2] were 36.8 nM and 3.61 nM, respectively.

Regarding `CC(c1ccccc1Oc1ccc(Cl)c(Cl)c1)N(C)C` (configuration not stated), the IC50 is 87.8 nM in assay [1] and 3.27 nM in assay [2].

In the case of `CNCc1ccc(Cl)cc1Oc1ccc(C)cc1`, the IC50 in assay [1] came to 1.18 nM; in assay [2], 17 nM.

In the case of `CNCc1cc(OC)ccc1Oc1ccc(Cl)c(Cl)c1`, the IC50 is 1450 nM in assay [1] and 3.77 nM in assay [2].

With `CN(C)Cc1ccc(C(F)(F)F)cc1Oc1ccc(Cl)c(Cl)c1`, the results for the IC50 in assay [1] and in assay [2] were 41.5 nM and 17.1 nM, respectively.

As to `CNCc1ccc(Cl)cc1Oc1ccc(Cl)c(Cl)c1`, the figures for the IC50 in assay [1] and in assay [2] were 89.5 nM and 6.22 nM, respectively.

Take `CNCc1cc(C(N)=O)ccc1Oc1ccc(Cl)c(Cl)c1`: the figures for the half-maximal inhibitory concentration (IC50) in assay [1], in assay [2] and in assay [3] were 1550 nM, 3.78 nM and 5440 nM, respectively.

Regarding `CN(C)Cc1ccccc1Oc1ccc(Cl)cc1`, the IC50 was 1980 nM in assay [1] and 1.68 nM in assay [2].

Take `CNCc1cc(F)ccc1Oc1ccccc1`: the values for the IC50 in assay [1] and in assay [2] were 670 nM and 381 nM, respectively.

For the molecule `CCc1cc(Oc2cc(Cl)ccc2CNC)ccc1Cl`, the IC50 worked out at 47.1 nM in assay [1], 20.7 nM in assay [2] and 1150 nM in assay [3].

On to `CNCc1cc(Cl)ccc1Oc1ccc(Cl)c(Cl)c1`, for which the IC50 was determined as 429 nM in assay [1] and 5.73 nM in assay [2].

Consider `CNCc1cc(F)ccc1Oc1ccc(Cl)c(F)c1`, for which the IC50 in assay [1] is 2010 nM; in assay [2] it was 19.3 nM.

Turning to `CNCc1ccc(Cl)cc1Oc1ccc(Cl)cc1`, the IC50 worked out at 6.59 nM in assay [1] and 9.2 nM in assay [2].

For the molecule `CNCc1cc(C)c(C)cc1Oc1ccc(Cl)c(Cl)c1`, the results for the concentration for half-maximal inhibition (IC50) in assay [1], in assay [2] and in assay [3] were 79.4 nM, 8.9 nM and 1480 nM, respectively.

For `CNCc1cc(C(F)(F)F)ccc1Oc1ccc(C)cc1`, the IC50 in assay [1] is 34.7 nM; in assay [2], 74.7 nM; in assay [3], 10400 nM.

Regarding `CNCc1ccc(C(F)(F)F)cc1Oc1ccc(Cl)c(Cl)c1`, the 50% inhibitory concentration (IC50) in assay [1] stood at 362 nM; in assay [2], 29.6 nM.

For `CNCc1cc(F)c(OC)cc1Oc1ccc(Cl)c(Cl)c1`, the 50% inhibitory concentration (IC50) in assay [1] was determined as 74.6 nM; in assay [2] it was 4.51 nM.

Turning to `CNCc1cc(F)ccc1Oc1ccc(F)c(Cl)c1`, the IC50 came to 575 nM in assay [1] and 37.5 nM in assay [2].

With `CNCc1cc(F)ccc1Oc1ccc(Cl)c(Cl)c1`, the figures for the IC50 in assay [1] and in assay [2] were 206 nM and 3.28 nM, respectively.

As for `CNCc1ccc(Cl)cc1Oc1ccc(C)c(C)c1`, the values for the IC50 in assay [1] and in assay [2] were 3.42 nM and 4.67 nM, respectively.

As to `CNCc1cc(F)ccc1Oc1ccc(Cl)cc1`, the IC50 in assay [1] turned out to be 495 nM; in assay [2], 9.47 nM.

For `CNC(C)c1ccccc1Oc1ccc(Cl)cc1` (configuration not stated), the IC50 in assay [1] was 179 nM; in assay [2] it was 56.8 nM.

Turning to `CNCc1ccc(Cl)cc1Oc1ccc(C)c(Cl)c1`, the IC50 in assay [1] was found to be 9.11 nM; in assay [2], 4.19 nM.

Turning to `CNCc1cc(OC)c(OC)cc1Oc1ccc(Cl)c(Cl)c1`, the IC50 in assay [1] is 249 nM; in assay [2], 14.1 nM.

In the case of `CNCc1ccccc1Oc1ccc(Cl)c(Cl)c1`, the IC50 amounted to 721 nM in assay [1] and 4.02 nM in assay [2].

As for `CNC(C)c1cc(F)ccc1Oc1ccc(Cl)cc1` (configuration not stated), the half-inhibitory concentration (IC50) in assay [1] was determined as 206 nM; in assay [2] it was 34.8 nM.

As to `CNCc1cc(F)ccc1Oc1ccc(C)c(C)c1`, the concentration for half-maximal inhibition (IC50) in assay [1] stood at 52.4 nM; in assay [2], 7.55 nM.

Consider `CNCc1ccc(F)cc1Oc1ccc(Cl)c(Cl)c1`, for which the IC50 in assay [1] turned out to be 651 nM; in assay [2] it was 36 nM.

Regarding `CNCc1cc(S(=O)(=O)NC)ccc1Oc1ccc(Cl)c(Cl)c1`, the IC50 was 5570 nM in assay [1], 9.35 nM in assay [2] and 4800 nM in assay [3].

On to `CN(C)Cc1ccccc1Oc1ccc(F)c(F)c1`, for which the results for the IC50 in assay [1] and in assay [2] were 1000 nM and 34.4 nM, respectively.

Turning to `CNCc1cc(C#N)ccc1Oc1ccc(Cl)c(Cl)c1`, the IC50 in assay [1] came to 3180 nM; in assay [2], 2.5 nM; in assay [3] it was 4560 nM.

Consider `CNCc1ccc(C(F)(F)F)cc1Oc1ccc(Cl)cc1`, for which the values for the IC50 in assay [1], in assay [2] and in assay [3] were 324 nM, 31.1 nM and 5110 nM, respectively.

Take `CNC(C)c1ccc(Cl)cc1Oc1ccc(C)c(C)c1` (configuration not stated): the half-maximal inhibitory concentration (IC50) in assay [1] turned out to be 6.82 nM; in assay [2], 115 nM.

Turning to `CNC(C)c1cc(C)ccc1Oc1ccc(Cl)c(Cl)c1` (configuration not stated), the IC50 in assay [1] came to 172 nM; in assay [2] it was 39.6 nM.

As to `CNC(C)c1cc(F)ccc1Oc1ccc(Cl)c(Cl)c1` (configuration not stated), the IC50 in assay [1] came to 301 nM; in assay [2], 8.09 nM.

On to `CNCc1ccc(Br)cc1Oc1ccc(Cl)c(Cl)c1`, for which the figures for the IC50 in assay [1] and in assay [2] were 66.8 nM and 5.1 nM, respectively.

With `CNCc1ccc(Cl)cc1Oc1ccc(F)c(Cl)c1`, the results for the IC50 in assay [1] and in assay [2] were 60.9 nM and 25.4 nM, respectively.

Take `CNCc1ccc(Cl)cc1Oc1cccc(Cl)c1`: the IC50 in assay [1] is 48.6 nM; in assay [2], 77.5 nM; in assay [3], 2110 nM.

With `CN(C)Cc1cc(CC(N)=O)ccc1Oc1ccc(Cl)c(Cl)c1`, the 50% inhibitory concentration (IC50) is 2240 nM in assay [1] and 2.43 nM in assay [2].

In the case of `CNCc1cc(F)c(Cl)cc1Oc1ccc(Cl)c(Cl)c1`, the IC50 in assay [1] amounted to 230 nM; in assay [2], 4.37 nM.

For the molecule `CNCc1cc(Br)ccc1Oc1ccc(Cl)c(Cl)c1`, the IC50 in assay [1] was found to be 787 nM; in assay [2], 4.8 nM.

In the case of `CNCc1ccc(OC)cc1Oc1ccc(Cl)c(Cl)c1`, the IC50 in assay [1] is 105 nM; in assay [2], 8.72 nM.

With `CNC(C)c1ccc(Cl)cc1Oc1ccc(C)cc1` (configuration not stated), the IC50 in assay [1] came to 3.54 nM; in assay [2], 187 nM; in assay [3], 3690 nM.

Turning to `CNCc1ccccc1Oc1ccc(C)c(C)c1`, the figures for the IC50 in assay [1] and in assay [2] were 66.4 nM and 12.8 nM, respectively.

With `CN(C)Cc1cc(N)ccc1Oc1ccc(Cl)c(Cl)c1`, the IC50 was determined as 724 nM in assay [1] and 4.99 nM in assay [2].

`CNCc1ccc(Cl)cc1Oc1ccc(F)c(C(F)(F)F)c1`: the IC50 in assay [1] is 48.9 nM; in assay [2] it was 9.71 nM; in assay [3] it was 873 nM.

Regarding `CNC(C)c1ccccc1Oc1ccc(Cl)c(Cl)c1` (configuration not stated), the values for the IC50 in assay [1] and in assay [2] were 379 nM and 23 nM, respectively.

In the case of `CNCc1ccc(Cl)cc1Oc1ccc(Cl)c(C)c1`, the results for the IC50 in assay [1] and in assay [2] were 9.04 nM and 4.27 nM, respectively.

With `CNCc1cc(F)ccc1Oc1ccc(-c2ccccc2)cc1`, the IC50 amounted to 378 nM in assay [1] and 28.9 nM in assay [2].

Turning to `CN(C)Cc1ccccc1Oc1ccc(Cl)c(Cl)c1`, the figures for the IC50 in assay [1] and in assay [2] were 144 nM and 0.35 nM, respectively.

Regarding `CNCc1ccc(Cl)cc1Oc1ccc(Cl)c(F)c1`, the IC50 stood at 58.1 nM in assay [1], 88 nM in assay [2] and 1230 nM in assay [3].

As for `CNCc1cc(Cl)ccc1Oc1ccc(Cl)cc1`, the 50% inhibitory concentration (IC50) was 90.2 nM in assay [1] and 7.49 nM in assay [2].

Consider `CNCc1cc(C(F)(F)F)ccc1Oc1ccc(Cl)c(Cl)c1`, for which the IC50 in assay [1] stood at 1800 nM; in assay [2], 21.8 nM.

As to `CNCc1cc(Cl)ccc1Oc1ccc(C)c(C)c1`, the IC50 worked out at 51 nM in assay [1] and 9.81 nM in assay [2].

Turning to `CNCc1ccc(C#N)cc1Oc1ccc(Cl)c(Cl)c1`, the IC50 in assay [1] came out at 315 nM; in assay [3], 1310 nM.

`CNC(C)c1cc(C(F)(F)F)ccc1Oc1ccc(Cl)c(Cl)c1` (configuration not stated): the IC50 in assay [1] came out at 291 nM; in assay [2], 61.2 nM; in assay [3] it was 3030 nM.

What is called IC50 is the concentration that gives 50% inhibition. High values mean lower potency, low ones higher potency.
